Reference: patent publication US11840521B2, “Modulators of Mas-related G-protein receptor X4 and related products and methods” (Escient Pharmaceuticals, Inc., priority 2019, dated 2023)
pIC50: −log10 of the molar value.

Biological target: MRGPRX4 (Homo sapiens, UniProt Q96LA9)
Assay: MRGPR X4 antagonist activity, IP-One Gq HTRF assay in stably transfected HEK cells (versus agonist bilirubin, deoxycholic acid, conjugated bilirubin, urobilin, obeticholic acid or BAR502)
Type: cell-based
Design: expressed in transfected cells; host or cells: HEK cells, stably transfected
Settings: read-out: IC50 (10 μM BAR502) nM; MRGPRX4 antagonists versus 10 μM BAR502 agonist
Summary of the method: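 Stably transfected HEK cells expressing human MRGPR X4, seeded overnight, given compounds as 10-point 1:3 curves from 10 uM final top, incubated 1 h at 37° C then 30 min at room temperature. IP-1 measured by IP-One Gq HTRF. IC50 derived from the HTRF ratio.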

Sequence of MRGPRX4 (Q96LA9 whole entry): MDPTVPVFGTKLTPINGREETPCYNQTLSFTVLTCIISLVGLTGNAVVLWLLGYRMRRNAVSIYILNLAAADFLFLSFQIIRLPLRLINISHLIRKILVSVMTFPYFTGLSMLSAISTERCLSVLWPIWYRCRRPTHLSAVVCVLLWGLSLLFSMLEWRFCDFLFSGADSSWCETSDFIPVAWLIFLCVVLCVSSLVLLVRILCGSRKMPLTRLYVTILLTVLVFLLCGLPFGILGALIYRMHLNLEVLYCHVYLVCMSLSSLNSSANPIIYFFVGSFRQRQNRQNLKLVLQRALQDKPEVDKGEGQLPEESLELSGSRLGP

IC50	SMILES
17 nM	Cc1cc(C(F)(F)F)ccc1OCc1cc(C#N)cc(C(=O)O)c1 [Compound 32-2]

Same assay, conditions: versus 10 μM Bilirubin agonist; HEK cells expressing human MRGPR X4; read-out: MRGPR4 Antagonist Activity

pIC50	SMILES
6.00 to 6.30	O=C(O)c1cccc(COc2ccc3c(c2)OC(F)(F)O3)c1 [Compound 1-61]
6.30 to 7.00	O=C(O)c1cccc(COc2ccc3sccc3c2)c1F [Compound 4-22]
6.30 to 7.00	O=C(O)c1cccc(COc2cccc(Br)c2Cl)c1 [Compound 1-142]
> 7.00	O=C(O)c1cc(Cl)cc(COc2ccc(Cl)cc2Cl)c1 [Compound 2-1, 3-chloro-5-((2,4-dichlorophenoxy)methyl)benzoic acid]
5.60 to 6.00	O=C(O)c1cccc(COCc2ccc(Cl)cc2Cl)c1 [Compound 3-8]
5.60 to 6.00	O=C(O)c1cccc(COc2cccc(Cl)c2F)c1 [Compound 1-75]
> 7.00	COc1cc(COc2ccc(C(F)(F)F)cc2Cl)cc(C(=O)O)c1 [Compound 2-2]
5.60 to 6.00	COC(=O)c1cccc(COc2ccc(OC(F)(F)F)cc2)c1 [Compound 1-6]
> 7.00	O=C(O)c1cc(F)cc(COc2ccc(Cl)c(Cl)c2Cl)c1 [Compound 1-123]
5.60 to 6.00	O=C(O)c1cccc(COc2ccc3c(c2)CCC3)c1 [Compound 1-42]
6.00 to 6.30	COCCNC(=O)c1cccc(COc2ccc(C(F)(F)F)cc2Cl)c1 [Compound 52-9]
6.30 to 7.00	O=C(O)c1cccc(COc2ccc(C(F)F)cc2)c1 [Compound 33-2]
6.30 to 7.00	CC(C)NC(=O)c1cccc(COc2ccc(C(F)(F)F)cc2Cl)c1 [Compound 52-8]
> 7.00	COCCCNC(=O)c1cccc(COc2ccc(C(F)(F)F)cc2Cl)c1 [Compound 52-13]
> 7.00	COC(=O)c1cccc(COc2ccc(C(F)(F)F)cc2Cl)n1 [Compound 1-11]
6.30 to 7.00	O=C(O)c1cccc(COc2ccc(-n3cccc3)cc2)c1 [Compound 1-80]
> 7.00	N#Cc1cc(COc2ccc(Cl)cc2Cl)cc(C(=O)O)c1 [Compound 5-1, 3-cyano-5-((2,4-dichlorophenoxy)methyl)benzoic acid]
6.00 to 6.30	O=C(O)c1cccc(COc2ccc3ccncc3c2)c1 [Compound 1-98]
6.00 to 6.30	FC(F)(F)c1ccc(OCc2cccc(-c3nc[nH]n3)c2)c(Cl)c1 [Compound 45-2, 3-(3-((2-chloro-4-(trifluoromethyl)phenoxy)methyl)phenyl)-1H-1,2,4-triazole]
6.30 to 7.00	O=C(NC1CCCC1)c1cccc(COc2ccc(C(F)(F)F)cc2Cl)c1 [Compound 52-23]
6.00 to 6.30	Nc1cccc(COc2ccc(C(F)(F)F)cc2Cl)c1 [Compound 65-1, 3-((2-chloro-4-(trifluoromethyl)phenoxy)methyl)aniline]
5.60 to 6.00	O=C(O)c1cccc(COc2cc(Cl)cc(Cl)c2)c1 [Compound 3-9]
6.30 to 7.00	O=C(O)c1cc(COc2ccc(Cl)cc2Cl)ccc1F [Compound 4-3]
6.00 to 6.30	O=C(O)c1ccc(COc2ccc(Cl)cc2Cl)s1 [Compound 1-43]
6.00 to 6.30	O=C(O)c1ccc(NC(=O)c2cccc(COc3ccc(C(F)(F)F)cc3Cl)c2)cc1 [Compound 54-10]

pIC50	SMILES
6.00 to 6.30	O=C(O)c1cccc(CNc2ccc3ccccc3c2)c1 [Compound 12-2]
< 5.60	O=C(O)Cc1cccc(COc2ccc(Cl)cc2Cl)c1 [Compound 64-1, 2-(3-((2,4-dichlorophenoxy)methyl)phenyl)acetic acid]
6.00 to 6.30	O=C1CC(c2cccc(COc3ccc(C(F)(F)F)cc3Cl)c2)N1 (stereo not shown) [Compound 59-1, 4-(3-((2-chloro-4-(trifluoromethyl)phenoxy)methyl)phenyl)azetidin-2-one]
> 7.00	Cc1cc(COc2ccc(C(F)(F)F)cc2Cl)nc(C(=O)O)c1 [Compound 41-2]
6.30 to 7.00	Cc1cc(OCc2cccc(C(=O)O)c2)ccc1C#N [Compound 1-145]
6.30 to 7.00	O=C(O)c1cc(COc2ccc(C(F)(F)F)c(Cl)c2)cc(C(F)(F)F)c1 [Compound 4-16]
< 5.60	Cc1noc(-c2cccc(COc3ccc(C(F)(F)F)cc3Cl)c2)n1 [Compound 49-1, 5-(3-((2-chloro-4-(trifluoromethyl)phenoxy)methyl)phenyl)-3-methyl-1,2,4-oxadiazole]
> 7.00	O=C(O)c1cccc(COc2ccc3ccccc3c2)n1 [Compound 1-30]
> 7.00	O=C(O)c1cccc(COc2ccc(C(F)(F)F)c(F)c2)c1 [Compound 1-112]
6.00 to 6.30	O=C(c1cccc(COc2ccc(C(F)(F)F)cc2Cl)c1)N1CC(O)C1 [Compound 52-18]
> 7.00	Cc1cc(COc2ccc3ccccc3c2)cc(C(=O)O)c1 [Compound 4-12]
> 7.00	COc1cc(COc2ccc(Cl)cc2Cl)cc(C(=O)O)c1 [Compound 4-5]
6.00 to 6.30	O=C(O)c1cccc(COc2ccc(F)cc2C(F)(F)F)c1 [Compound 1-91]
> 7.00	CCc1cc(COc2ccc(Cl)c(Cl)c2Cl)nc(C(=O)O)c1 [Compound 42-2]
6.30 to 7.00	O=C(NC1CCC1)c1cccc(COc2ccc(C(F)(F)F)cc2Cl)c1 [Compound 52-24]
> 7.00	Cc1cc(C(F)(F)F)ccc1OCc1cccc(-c2nnn[nH]2)c1 [Compound 17-11]
6.30 to 7.00	NC(=O)CC[C@H](NC(=O)c1cccc(COc2ccc(C(F)(F)F)cc2Cl)c1)C(=O)O [Compound 55-3]
> 7.00	Cc1cc(C(F)(F)F)ccc1OCc1cc(C#N)cc(C(=O)O)c1 [Compound 32-2]
6.00 to 6.30	COc1ccc(OCc2cccc(C(=O)O)c2)c(F)c1F [Compound 1-96]
> 7.00	N#Cc1cc(COc2ccc(C(F)(F)F)cc2Cl)nc(C(=O)O)c1 [Compound 43-1, 6-((2-chloro-4-(trifluoromethyl)phenoxy)methyl)-4-cyano-pyridine-2-carboxylic acid]
6.30 to 7.00	CNC(=O)c1cccc(COc2ccc(C(F)(F)F)cc2Cl)c1 [Compound 52-26]
5.60 to 6.00	COC(=O)c1cccc(COc2ccc(Cl)cc2C(F)(F)F)c1 [Compound 1-1]
6.30 to 7.00	CCOC(=O)c1cccc(COc2ccc(C(F)(F)F)cc2Cl)c1F [Compound 56-1, ethyl 3-((2-chloro-4-(trifluoromethyl)phenoxy)methyl)-2-fluorobenzoate]
> 7.00	N#Cc1cc(COc2ccc(Cl)c(Cl)c2Cl)cc(C(=O)O)c1 [Compound 32-3]
6.00 to 6.30	CN(C)CCNC(=O)c1cccc(COc2ccc(C(F)(F)F)cc2Cl)c1 [Compound 52-17]

pIC50	SMILES
6.00 to 6.30	O=C(O)c1cccc(COc2ccc(Cl)cc2)n1 [Compound 1-36]
6.30 to 7.00	CC(C)[C@H](NC(=O)c1cccc(COc2ccc(C(F)(F)F)cc2Cl)c1)C(=O)O [Compound 54-1, (3-((2-chloro-4-(trifluoromethyl)phenoxy)methyl)benzoyl)-L-valine]
6.30 to 7.00	CN(C)c1cc(COc2ccc(C(F)(F)F)cc2Cl)cc(C(=O)O)c1 [Compound 38-1, 3-((2-chloro-4-(trifluoromethyl)phenoxy)methyl)-5-(dimethylamino)benzoic acid]
5.60 to 6.00	N#Cc1cc(OCc2cccc(C(=O)O)c2)ccc1Cl [Compound 1-70]
5.60 to 6.00	CNC(=O)c1ccc(OCc2cccc(C(=O)O)c2)cc1 [Compound 1-152]
> 7.00	Fc1cc(COc2ccc(C(F)(F)F)cc2Cl)cc(-c2nnn[nH]2)c1 [Compound 17-14]
5.60 to 6.00	CC(=O)c1ccc(OCc2cccc(C(=O)O)c2)c(Cl)c1 [Compound 1-126]
6.00 to 6.30	CNC(=O)CNC(=O)c1cccc(COc2ccc(C(F)(F)F)cc2Cl)c1 [Compound 52-27]
> 7.00	FC(F)(F)Oc1ccc(OCc2cccc(-c3nnn[nH]3)c2)cc1Cl [Compound 17-10]
6.00 to 6.30	O=C(O)c1cc(COc2ccc(C(F)(F)F)cc2Cl)cc(-c2ccccc2)c1 [Compound 8-4]
6.30 to 7.00	O=C(O)c1cccc(COc2ccc3occc3c2)c1 [Compound 1-131]
5.60 to 6.00	O=C(O)c1cccc(COc2cccc3c2CCC3)c1 [Compound 1-33]
5.60 to 6.00	NCCNC(=O)c1cccc(COc2ccc(C(F)(F)F)cc2Cl)c1 [Compound 53-2]
5.60 to 6.00	Cc1ccc(OCc2cccc(C(=O)O)c2)c(C)c1 [Compound 3-7]
< 5.60	CC(=O)c1ccc(OCc2cccc(C(=O)O)c2)cc1 [Compound 1-54]
> 7.00	O=C(O)c1cccc(COc2ccc(Cl)c(F)c2Cl)c1 [Compound 1-148]
5.60 to 6.00	Cc1cc(F)ccc1OCc1cccc(C(=O)O)c1 [Compound 1-94]
> 7.00	Cc1cc(COc2ccc(Cl)cc2Cl)cc(C(=O)O)c1 [Compound 4-7]
< 5.60	O=C(O)c1cccc(Oc2ccc([N+](=O)[O-])cc2Cl)c1 [Compound 16-2]
6.30 to 7.00	CCCCNC(=O)c1cccc(COc2ccc(C(F)(F)F)cc2Cl)c1 [Compound 52-7]
6.00 to 6.30	O=C(O)c1cccc(COc2ccc(C(F)(F)F)cc2C2CC2)c1 [Compound 34-1, 3-((2-cyclopropyl-4-(trifluoromethyl)phenoxy)methyl)benzoic acid]
< 5.60	O=C(c1ccc(COc2ccc(C(F)(F)F)cc2Cl)cc1)N1CC2(COC2)C1 [Compound 52-2]
6.00 to 6.30	COC(=O)c1cccc(COc2ccc(Cl)cc2C(F)(F)F)n1 [Compound 1-10]

Same assay, conditions: versus 10 μM Bilirubin agonist; read-out: IC50 (Bilirubin agonist)

pIC50	SMILES
8.00	N#Cc1cc(COc2ccc(Cl)cc2Cl)cc(C(=O)O)c1 [Compound 5-1, 3-cyano-5-((2,4-dichlorophenoxy)methyl)benzoic acid]

Same assay, conditions: versus 20 μM deoxycholic acid; read-out: IC50 (Deoxycholic Acid agonist)

pIC50	SMILES
7.64	N#Cc1cc(COc2ccc(Cl)cc2Cl)cc(C(=O)O)c1 [Compound 5-1, 3-cyano-5-((2,4-dichlorophenoxy)methyl)benzoic acid]

Same assay, conditions: versus 20 μM obeticholic acid; read-out: IC50 (Obeticholic Acid Agonist)

pIC50	SMILES
8.22	N#Cc1cc(COc2ccc(Cl)cc2Cl)cc(C(=O)O)c1 [Compound 5-1, 3-cyano-5-((2,4-dichlorophenoxy)methyl)benzoic acid]

Same assay, conditions: versus 50 μM urobilin; read-out: IC50 (Urobilin Agonist)

pIC50	SMILES
8.22	N#Cc1cc(COc2ccc(Cl)cc2Cl)cc(C(=O)O)c1 [Compound 5-1, 3-cyano-5-((2,4-dichlorophenoxy)methyl)benzoic acid]

Same assay, conditions: versus 100 μM conjugated bilirubin; read-out: IC50 (Conjugated Bilirubin Agonist)

pIC50	SMILES
7.57	N#Cc1cc(COc2ccc(Cl)cc2Cl)cc(C(=O)O)c1 [Compound 5-1, 3-cyano-5-((2,4-dichlorophenoxy)methyl)benzoic acid]
